The numbers were not newly measured in PMC9377340 (Chemical biology & drug design, 2022), which cites them from elsewhere.

Several values for one entry are separate records, joined by “and”; a condition that tells them apart may be missing. Identical values can stand only once.

In this data set the target is human FXIa (Homo sapiens, UniProt P03951). To be noted: ref Kar et al., 2020.
human FXIa, sequence (P03951 388-625 limits assumed): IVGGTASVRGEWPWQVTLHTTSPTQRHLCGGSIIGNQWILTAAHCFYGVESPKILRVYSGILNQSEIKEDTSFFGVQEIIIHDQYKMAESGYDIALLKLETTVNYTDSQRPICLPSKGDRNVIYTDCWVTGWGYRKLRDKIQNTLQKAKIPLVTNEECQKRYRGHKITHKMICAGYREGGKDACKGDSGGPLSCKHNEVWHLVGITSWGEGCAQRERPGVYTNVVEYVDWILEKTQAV
human FXIa, sequence (P03951 19-387 limits assumed): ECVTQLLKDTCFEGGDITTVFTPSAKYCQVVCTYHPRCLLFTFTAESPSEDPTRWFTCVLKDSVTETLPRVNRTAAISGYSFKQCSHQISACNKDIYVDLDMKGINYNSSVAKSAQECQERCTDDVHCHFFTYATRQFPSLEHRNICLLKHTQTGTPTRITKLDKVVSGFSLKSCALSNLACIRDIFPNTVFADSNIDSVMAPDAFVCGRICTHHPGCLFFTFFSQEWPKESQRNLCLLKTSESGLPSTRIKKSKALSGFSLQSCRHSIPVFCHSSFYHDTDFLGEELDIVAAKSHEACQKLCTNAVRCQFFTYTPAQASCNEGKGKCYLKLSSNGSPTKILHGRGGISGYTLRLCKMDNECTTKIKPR

For the substance benzyl tetraphosphonate [BTP], the “HS (Hill slope), FXIa inhibition” value is 1.9 ± 0.5 and the “ΔY (efficacy), FXIa inhibition” value is recorded as 68.0 ± 3.7%. The IC50 (as a rule, the concentration that gives 50% inhibition) (read-out: IC50, FXIa inhibition) is ~7.4 µM and 7.4 µM.
